Test results from paper PMC12302426, “Dihydrokoumine, a dual-target analgesic with reduced side effects isolated from a traditional Chinese medicine” (Journal of Advanced Research, 2024).

Legend:
histamine receptor H1 = biological target: T1, histamine receptor H1 (Homo sapiens, UniProt P35367); assay: DMR desensitization assay, A431, probe histamine; type: cell-based; settings: 100 μM DK
T1 construct: endogenous in cells; host or cells: A431
Method: (§1) DMR assays were performed using an Epic® BT system (Corning, NY, USA). All used cell lines were directly seeded in Epic 384-well biosensor microplates with a seeding density of 25,000 cells per well. After being cultured for about 22 h, the cells formed a monolayer with a confluency of about 95 % in the cell culture medium. Then the cells were manually washed using assay buffer (1 × HBSS buffer, 10 mM HEPES, pH = 7.4) and maintained in 30 μL of the assay buffer for 1 h. All samples were dissolved in DMSO and diluted freshly with the assay buffer containing 0.1 % BSA.
(§2) The receptor selectivity was evaluated against a set of G protein-coupled receptors (GPCRs), including opioid receptor (Delta/Kappa/NOP), dopamine receptor (D1/D2), orphan receptor (GPR35), adrenergic receptor (α2A/β2), serotonin receptor (5HT2A), histamine receptor (H1) and cannabinoid receptor (CB1). Following a 1-hour pretreatment with DK, a 2-min baseline was established before introducing probes and monitoring DMR signals for another hour. The cells and probes were as follows: Delta, HEK293-Delta, SNC162; Kappa, HEK293-Kappa, ICI199441; NOP, HEK293-NOP, MCOPPB; D1, HEK293-D1, dopamine; D2, HEK293-D2, dopamine; GPR35, CHO-K1-hGPR35, zaprinast; 5HT2A, HEK293-5HT2A, 5-hydroxytryptamine; α2A, HEK293-α2A, L-Noradrenaline; β2, A431, isoprenaline; H1, A431, histamine; CB1, CHO-K1-CB1, CP 55940. […]

cannabinoid receptor CB1 = biological target: T2, cannabinoid receptor CB1 (Homo sapiens, UniProt P21554); assay: DMR desensitization assay, CHO-K1-CB1, probe CP 55940; type: cell-based; settings: 100 μM DK
T2 construct: expressed in transfected cells; host or cells: CHO-K1-CB1
Method: as §1, §2

mu opioid receptor (MOR) = biological target: T3, mu opioid receptor (MOR) (Homo sapiens, UniProt P35372); assay: FLIPR Ca2+ assay in HEK293T-Mu cells; type: cell-based
T3 construct: expressed in transfected cells; host or cells: HEK293T-Mu
Method: (§3) FLIPR assay was carried out as reported earlier. Cell lines were seeded in 96-well plates with black walls (Greiner, USA) at 8.0 × 10^4 cells per well. After approximately 22 h of incubation, the cells were exposed to Calcium-6 dye (Molecular Devices, USA) in HBSS buffer supplemented with 20 mM HEPES (pH 7.4) at 37°C for one hour. Samples, redissolved in DMSO and housed in 96-well drug plates, underwent dilution with FLIPR buffer and subsequent automated introduction to the cells. […] In FLIPR antagonist experiments, cells were pre-incubated with the compound for 10 min prior to introducing a specified concentration of agonist. Results were presented as fluorescence (arbitrary units) plotted against time.

M1R = biological target: T4, M1R (Homo sapiens, UniProt P11229); assay: FLIPR assay in CHO-M1 cells (carbachol-induced Ca2+); type: cell-based; settings: DK pretreatment one hour
T4 construct: expressed in transfected cells
Method: as §3, with “In FLIPR antagonist experiments, cells were pre-incubated with the compound for 10 min prior to introducing a specified concentration of agonist.” left out

adrenergic receptor β2 = biological target: T5, adrenergic receptor β2 (Homo sapiens, UniProt P07550); assay: DMR desensitization assay, A431, probe isoprenaline; type: cell-based; settings: 100 μM DK
T5 construct: endogenous in cells; host or cells: A431
Method: as §1, §2

orphan receptor GPR35 = biological target: T6, orphan receptor GPR35 (Homo sapiens, UniProt Q9HC97); assay: DMR desensitization assay, CHO-K1-hGPR35, probe zaprinast; type: cell-based; settings: 100 μM DK
T6 construct: expressed in transfected cells; host or cells: CHO-K1-hGPR35
Method: as §1, §2

M3R = biological target: T7, M3R (Homo sapiens, UniProt P20309); assay: Radioligand binding assay, [3H] NMS; settings: [3H] NMS 0.2 nM
T7 construct: expressed in transfected cells; host or cells: HEK293 cell membranes
Method: Radioligand binding assays were conducted using MicroBeta2 (PerkinElmer, USA). Membrane protein preparations MOR and M3R were each prepared at a concentration of 2.5 µg/well. The radio ligands [^3H] DAMGO (specific for MOR) and [^3H]-NMS (specific for M3R) were prepared at concentrations of 0.5 nM and 0.2 nM, respectively. […] For each well, 1 µL of the serially diluted test compounds was transferred, followed by the addition of 100 µL of membrane stock solution and 100 µL of radioligand. The plates were sealed and shaken at 300 rpm at room temperature for one hour. Upon completion of the binding assay, the contents of each well were filtered through Unifilter-96 GF/C filter plates (PerkinElmer, USA). The filter plates were dried for one hour at 50°C and sealed. The trapped ^3H (tritium) on the filters was then quantified using the MicroBeta2. The percentage of inhibition or binding was subsequently calculated.

CHO cells = assay: Cytotoxicity assay (CCK-8), CHO; type: cell-based; settings: 24 h
Method: HEK293T, CHO, and HUVEC cell lines were cultured overnight in 96-well plates before exposure to compounds for 24 h. Cell viability was evaluated using the Cell Counting Kit-8 (CCK-8, Beyotime Biotechnology, China), and absorbance at 450 nm was measured with a microplate reader. Cell survival rates were calculated relative to control conditions.

adrenergic receptor α2A = biological target: T8, adrenergic receptor α2A (Homo sapiens, UniProt P08913); assay: DMR desensitization assay, HEK293-α2A, probe L-Noradrenaline; type: cell-based; settings: 100 μM DK
T8 construct: expressed in transfected cells; host or cells: HEK293-α2A
Method: as §1, §2

C57BL/6 male mice = assay: Antinociceptive tolerance, repeated injection over 7 days, hot-plate assay; type: in vivo; settings: DK 20 and 40 mg/kg daily over 7 days, compared with morphine 5 mg/kg
Method: Subsequent tolerance assessment was conducted through a repeated-injection protocol employing the hot-plate assay. Mice were injected intraperitoneally (5 mL/kg) with the solvent mixture, morphine (5 mg/kg) or DK (20, 40 mg/kg) daily for a continuous seven-day period. The diminishment of the antinociception of drugs in the assay was employed to evaluate the tolerance, with latency measured one hour after drug administration throughout the week.

M5R = biological target: T9, M5R (Homo sapiens, UniProt P08912); assay: FLIPR assay in CHO-M5 cells (carbachol-induced Ca2+); type: cell-based; settings: DK pretreatment one hour
T9 construct: expressed in transfected cells
Method: as §3, with “In FLIPR antagonist experiments, cells were pre-incubated with the compound for 10 min prior to introducing a specified concentration of agonist.” left out

T7 sequence (P20309 whole entry): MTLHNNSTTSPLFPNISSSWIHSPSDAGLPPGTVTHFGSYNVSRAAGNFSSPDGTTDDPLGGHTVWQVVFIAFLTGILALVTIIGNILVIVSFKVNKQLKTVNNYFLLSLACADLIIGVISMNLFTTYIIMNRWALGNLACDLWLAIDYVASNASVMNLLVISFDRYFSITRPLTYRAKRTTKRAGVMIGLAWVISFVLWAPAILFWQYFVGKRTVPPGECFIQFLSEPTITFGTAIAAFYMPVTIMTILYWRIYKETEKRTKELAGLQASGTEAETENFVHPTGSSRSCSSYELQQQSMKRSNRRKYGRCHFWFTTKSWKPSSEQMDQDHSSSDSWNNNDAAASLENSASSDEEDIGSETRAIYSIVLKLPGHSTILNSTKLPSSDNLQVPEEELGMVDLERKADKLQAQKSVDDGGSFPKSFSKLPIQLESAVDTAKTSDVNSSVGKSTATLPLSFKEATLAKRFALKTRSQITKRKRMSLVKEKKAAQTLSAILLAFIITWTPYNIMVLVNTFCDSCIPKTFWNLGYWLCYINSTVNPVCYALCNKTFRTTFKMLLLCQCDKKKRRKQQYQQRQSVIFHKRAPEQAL
T3 sequence (P35372 whole entry): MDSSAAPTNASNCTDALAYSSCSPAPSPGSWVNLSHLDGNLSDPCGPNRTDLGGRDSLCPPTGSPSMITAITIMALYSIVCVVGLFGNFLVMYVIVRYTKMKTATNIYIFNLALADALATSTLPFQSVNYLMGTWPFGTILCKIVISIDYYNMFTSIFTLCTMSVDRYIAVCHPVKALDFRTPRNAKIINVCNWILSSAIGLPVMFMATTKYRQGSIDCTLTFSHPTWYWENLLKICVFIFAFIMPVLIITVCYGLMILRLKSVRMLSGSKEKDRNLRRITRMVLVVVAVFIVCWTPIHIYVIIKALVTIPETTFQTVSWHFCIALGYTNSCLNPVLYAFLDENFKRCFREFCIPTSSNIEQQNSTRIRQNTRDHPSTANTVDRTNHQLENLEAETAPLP
T9 sequence (P08912 whole entry): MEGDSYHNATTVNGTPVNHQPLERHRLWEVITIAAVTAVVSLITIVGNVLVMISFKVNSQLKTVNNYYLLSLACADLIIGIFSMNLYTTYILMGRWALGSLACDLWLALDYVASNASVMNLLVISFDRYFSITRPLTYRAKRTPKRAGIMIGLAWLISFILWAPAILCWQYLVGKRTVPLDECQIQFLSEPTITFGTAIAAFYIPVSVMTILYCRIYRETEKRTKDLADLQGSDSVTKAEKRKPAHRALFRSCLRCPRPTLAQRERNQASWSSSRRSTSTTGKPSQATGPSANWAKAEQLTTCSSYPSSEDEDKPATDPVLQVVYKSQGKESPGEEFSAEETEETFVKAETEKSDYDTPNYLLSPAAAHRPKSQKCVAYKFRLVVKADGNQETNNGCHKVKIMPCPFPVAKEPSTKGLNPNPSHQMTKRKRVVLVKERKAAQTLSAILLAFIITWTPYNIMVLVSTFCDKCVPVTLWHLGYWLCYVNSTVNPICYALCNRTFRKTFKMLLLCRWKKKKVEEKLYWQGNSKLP
T5 sequence (P07550 whole entry): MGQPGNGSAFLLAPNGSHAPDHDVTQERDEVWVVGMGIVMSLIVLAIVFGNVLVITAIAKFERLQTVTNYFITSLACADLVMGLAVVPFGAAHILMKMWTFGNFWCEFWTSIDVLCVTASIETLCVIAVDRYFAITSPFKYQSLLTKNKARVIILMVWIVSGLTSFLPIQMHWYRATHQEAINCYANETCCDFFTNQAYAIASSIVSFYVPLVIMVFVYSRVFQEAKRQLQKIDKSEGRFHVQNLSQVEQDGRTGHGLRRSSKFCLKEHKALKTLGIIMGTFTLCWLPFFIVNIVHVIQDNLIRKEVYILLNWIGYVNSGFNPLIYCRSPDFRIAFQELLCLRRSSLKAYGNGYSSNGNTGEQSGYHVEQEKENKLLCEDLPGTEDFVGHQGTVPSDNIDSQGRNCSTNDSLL
T6 sequence (Q9HC97 whole entry): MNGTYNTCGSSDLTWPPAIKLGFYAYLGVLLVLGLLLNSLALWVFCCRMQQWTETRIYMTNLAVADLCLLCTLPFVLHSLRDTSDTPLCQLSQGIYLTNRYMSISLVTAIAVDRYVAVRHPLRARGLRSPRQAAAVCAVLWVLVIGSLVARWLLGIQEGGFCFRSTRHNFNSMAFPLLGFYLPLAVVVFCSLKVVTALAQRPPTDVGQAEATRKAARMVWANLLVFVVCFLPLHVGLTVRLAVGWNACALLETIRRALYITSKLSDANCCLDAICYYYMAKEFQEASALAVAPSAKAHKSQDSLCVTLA
T1 sequence (P35367 whole entry): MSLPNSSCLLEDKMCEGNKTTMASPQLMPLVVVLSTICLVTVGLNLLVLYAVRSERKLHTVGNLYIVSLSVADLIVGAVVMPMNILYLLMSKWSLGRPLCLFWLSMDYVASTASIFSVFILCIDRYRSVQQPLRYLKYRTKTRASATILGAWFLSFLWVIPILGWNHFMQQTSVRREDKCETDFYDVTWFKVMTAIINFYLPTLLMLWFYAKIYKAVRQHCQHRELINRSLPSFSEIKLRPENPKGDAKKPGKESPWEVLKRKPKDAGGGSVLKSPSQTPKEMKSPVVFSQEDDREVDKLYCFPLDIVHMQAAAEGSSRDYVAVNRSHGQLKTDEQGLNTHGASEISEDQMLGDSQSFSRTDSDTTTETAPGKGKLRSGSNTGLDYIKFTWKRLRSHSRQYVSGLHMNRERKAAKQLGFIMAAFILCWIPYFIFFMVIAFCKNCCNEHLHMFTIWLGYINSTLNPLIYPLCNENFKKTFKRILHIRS
T8 sequence (P08913 whole entry): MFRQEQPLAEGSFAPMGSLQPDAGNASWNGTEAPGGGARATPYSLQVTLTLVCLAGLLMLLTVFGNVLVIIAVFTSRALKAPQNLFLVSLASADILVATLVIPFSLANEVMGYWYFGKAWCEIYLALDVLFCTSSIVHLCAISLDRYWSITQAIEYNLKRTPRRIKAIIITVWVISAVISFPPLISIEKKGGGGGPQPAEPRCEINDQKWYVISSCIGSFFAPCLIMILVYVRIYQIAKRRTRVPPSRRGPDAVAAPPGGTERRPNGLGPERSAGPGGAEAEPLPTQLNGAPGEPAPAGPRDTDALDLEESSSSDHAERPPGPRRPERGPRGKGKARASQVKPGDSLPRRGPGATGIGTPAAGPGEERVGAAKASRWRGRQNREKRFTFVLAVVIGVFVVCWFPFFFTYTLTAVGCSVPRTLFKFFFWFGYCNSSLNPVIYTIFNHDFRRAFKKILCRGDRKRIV
T4 sequence (P11229 whole entry): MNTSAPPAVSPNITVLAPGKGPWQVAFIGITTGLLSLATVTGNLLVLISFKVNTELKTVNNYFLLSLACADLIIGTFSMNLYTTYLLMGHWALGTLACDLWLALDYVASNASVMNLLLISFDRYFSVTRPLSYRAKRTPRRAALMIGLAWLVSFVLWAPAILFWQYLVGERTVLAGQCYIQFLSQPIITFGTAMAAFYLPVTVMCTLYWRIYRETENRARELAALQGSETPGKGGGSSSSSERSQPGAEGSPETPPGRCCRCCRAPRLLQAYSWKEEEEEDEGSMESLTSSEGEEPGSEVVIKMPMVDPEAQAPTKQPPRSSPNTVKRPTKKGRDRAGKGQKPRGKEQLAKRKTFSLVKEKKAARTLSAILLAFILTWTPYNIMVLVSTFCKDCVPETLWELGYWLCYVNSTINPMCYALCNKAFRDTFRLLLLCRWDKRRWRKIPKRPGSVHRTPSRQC
T2 sequence (P21554 whole entry): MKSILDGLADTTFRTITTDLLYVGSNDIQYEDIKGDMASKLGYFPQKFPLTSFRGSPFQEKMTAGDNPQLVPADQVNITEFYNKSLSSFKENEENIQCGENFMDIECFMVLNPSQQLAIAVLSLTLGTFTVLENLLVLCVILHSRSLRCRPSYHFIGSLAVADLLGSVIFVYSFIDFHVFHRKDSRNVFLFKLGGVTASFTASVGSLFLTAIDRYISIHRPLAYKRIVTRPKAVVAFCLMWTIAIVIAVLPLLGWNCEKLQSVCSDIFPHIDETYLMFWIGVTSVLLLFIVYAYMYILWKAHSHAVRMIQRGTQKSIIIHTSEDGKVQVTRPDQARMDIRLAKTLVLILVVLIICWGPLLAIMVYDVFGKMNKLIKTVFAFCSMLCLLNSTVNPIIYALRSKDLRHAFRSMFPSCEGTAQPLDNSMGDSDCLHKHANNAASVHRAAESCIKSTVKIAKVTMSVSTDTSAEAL

What does the source list for `C=CC12CN(C)C3CC14c1ccccc1NC4C1CC2C3CO1` (stereo not shown) [DK]?
reduction of probe DMR response (desensitization) (histamine receptor H1): almost unable to reduce the response; reduction of probe DMR response (desensitization) (cannabinoid receptor CB1): almost unable to reduce the response; Ca2+ response after naloxone pretreatment (mu opioid receptor (MOR); 100 μM DK): significantly decreased by naloxone; maximum Ca2+ response compared with endomorphin-1 (mu opioid receptor (MOR); FLIPR): less than half of the maximum Ca^2+ response of endomorphin-1; inhibition of carbachol-induced Ca2+ response (M1R): could not concentration-dependently inhibit; reduction of probe DMR response (desensitization) (adrenergic receptor β2): almost unable to reduce the response; reduction of probe DMR response (desensitization) (orphan receptor GPR35): almost unable to reduce the response; Ki (M3R): 55.2 ± 11 µM; efficacy (maximal inhibition of radioligand binding) (M3R): 74.6%; cytotoxicity (cell viability) (CHO cells): noncytotoxic; reduction of probe DMR response (desensitization) (adrenergic receptor α2A): almost unable to reduce the response; antinociceptive tolerance (C57BL/6 male mice): no antinociceptive tolerance was observed; inhibition of carbachol-induced Ca2+ response (M5R): could not concentration-dependently inhibit
